What was measured:
Assay type in all cases: cell-based
Aspergillus flavus = experiment: Antifungal paper disk test, diameter of clear zone; conditions: for zone of inhibition at 100 µg/disc: read-out: Diameter (mm) of clear Zone A. flavus
Method: (§1) Sulfur compounds were tested for antifungal activity against pure cultures of Aspergillus niger and Aspergillus flavus supplied by Ward's Natural Science Ltd (St. Catharines, Ontario, Canada). They were maintained on Sabouraud Dextrose Agar.
(§2) For the test, 6 agar plugs (5 mm diameter) were cut from a 5-8 day old colony and homogenized in distilled, sterilized water (2 ml). A portion of this suspension (0.5 ml) was transferred aseptically to a Petri plate with Sabouraud Dextrose Agar (15 ml) and spread evenly over the entire surface. […] Each test compound was applied to the disks as a solution (50 mg compound/10 ml acetone). Control disks were treated with neat acetone (20 μl). Test plates with fungal homogenates and disks were incubated at 18-20° C. for 2 days. For each test four replicate plates were used. The diameter of the clear zone surrounding the disk was taken as the indicator of antifungal activity.

Aspergillus niger = experiment: Antifungal paper disk test, diameter of clear zone; conditions: for zone of inhibition at 100 µg/disc: read-out: Diameter (mm) of clear Zone A. niger
Method: as §1, §2

[1] = test system: Aspergillus niger and Aspergillus flavus; experiment: Antifungal activity; conditions: in words; for Antifungal activity: dose not given
Method: as §1
For the test, 6 agar plugs (5 mm diameter) were cut from a 5-8 day old colony and homogenized in distilled, sterilized water (2 ml). A portion of this suspension (0.5 ml) was transferred aseptically to a Petri plate with Sabouraud Dextrose Agar (15 ml) and spread evenly over the entire surface. Each plate was supplied with four evenly spaced paper disks (7 mm, Whatman Number 1 filter paper) containing the test compound (0, 25, 50 and 100 μg respectively). Each test compound was applied to the disks as a solution (50 mg compound/10 ml acetone). Control disks were treated with neat acetone (20 μl). Test plates with fungal homogenates and disks were incubated at 18-20° C. for 2 days. For each test four replicate plates were used. The diameter of the clear zone surrounding the disk was taken as the indicator of antifungal activity.

[2] = Aspergillus flavus, 100 μg/disk, acetone
[3] = Aspergillus niger, 100 μg/disk, acetone
[4] = Aspergillus flavus, 25 μg/disk, acetone
[5] = Aspergillus niger, 25 μg/disk, acetone
[6] = 0.25 μg/disk, Appl'n Solvent Acetone

CSSCCOC(C)=O [CH3SSCH2CH2OC(O)CH3, 3,4-dithiapentyl acetate]
zone of inhibition at 100 µg/disc (Aspergillus flavus; [2]): 0 mm | zone of inhibition at 100 µg/disc (Aspergillus niger; [3]): 0 mm

CS(=O)(=O)Sc1ccc([N+](=O)[O-])cc1 [p-CH3SO2S(C6H4)NO2, p-Nitrophenyl Methanethiosulfonate]
Diameter (mm) of clear Zone A. flavus (Aspergillus flavus; 25 μg/disk, acetone): 1.2 mm | Diameter (mm) of clear Zone A. niger (Aspergillus niger; 25 μg/disk, acetone): 1.9 mm

COC(=O)c1ccccc1SSC [o-CH3OC(O)(C6H4)SSCH3, methyl-o(methyldithio)benzoate]
Diameter (mm) of clear Zone A. flavus (Aspergillus flavus; 25 μg/disk, acetone): 4.3 mm | Diameter (mm) of clear Zone A. niger (Aspergillus niger; 25 μg/disk, acetone): 2.8 mm

CSSc1cccc([N+](=O)[O-])c1 [m-O2N(C6H4)SSCH3, methyl m-nitrophenyl disulphide]
zone of inhibition at 10 µg/disc (Aspergillus flavus; Aspergillus flavus, 10 μg/disk, acetone): 1.8 mm | zone of inhibition at 10 µg/disc (Aspergillus niger; Aspergillus niger, 10 μg/disk, acetone): 1.7 mm

o-Carbomethoxyphenyl Methanethiosulfonate [o-CH3SO2S(C6H4)CO2CH3]
Diameter (mm) of clear Zone A. flavus (Aspergillus flavus; 100 μg/disk, acetone): 0 mm | Diameter (mm) of clear Zone A. niger (Aspergillus niger; 100 μg/disk, acetone): 0 mm

CCC(=O)OCSSC [CH3CH2C(O)OCH2SSCH3, 2,3-dithiabutyl propionate]
zone of inhibition at 25 µg/disc (Aspergillus flavus; [4]): 7.6 mm | zone of inhibition at 25 µg/disc (Aspergillus niger; [5]): 14.8 mm

CS(=O)(=O)c1ccccc1SSc1ccccc1S(C)(=O)=O [[o-CH3SO2(C6H4)S]2, o-methylsulfonylphenyl disulphide]
zone of inhibition at 25 µg/disc (Aspergillus flavus; [4]): 3 mm | zone of inhibition at 25 µg/disc (Aspergillus niger; [5]): 3.3 mm

CSSC [CH3SSCH3, dimethyl disulphide]
Diameter (mm) of clear Zone A. flavus (Aspergillus flavus; 100 μg/disk, acetone): 0 mm | Diameter (mm) of clear Zone A. niger (Aspergillus niger; 100 μg/disk, acetone): 0 mm | Antifungal activity [1]: no antifungal behaviour

CSSc1ccccc1 [Compound C6H5SSCH3, phenyl methyl disulphide]
zone of inhibition at 100 µg/disc (Aspergillus flavus; [2]): 0 mm | zone of inhibition at 100 µg/disc (Aspergillus niger; [3]): 0 mm | Antifungal activity / fungitoxicity ([1]; 100 μg/disk): no observable fungitoxicity

Methyl methanethiosulfonate [CH3SO2SCH3]
Diameter (mm) of clear Zone A. flavus (Aspergillus flavus; 100 μg/disk, acetone): 0 mm | Diameter (mm) of clear Zone A. niger (Aspergillus niger; 100 μg/disk, acetone): 3.3 mm | Antifungal activity [1]: effective against only one of the test fungi

CS(=O)(=O)c1ccc(SSc2ccc(S(C)(=O)=O)cc2)cc1 [[p-CH3SO2(C6H4)S]2, p-methylsulfonylphenyl disulphide]
zone of inhibition at 25 µg/disc (Aspergillus flavus; [4]): 6.9 mm | zone of inhibition at 25 µg/disc (Aspergillus niger; [5]): 4 mm

CSCSSCSC [(CH3SCH2S)2, reference compound]
Diameter (mm) of clear Zone A. flavus (Aspergillus flavus; 100 μg/disk, acetone): 2.3 mm | Diameter (mm) of clear Zone A. niger (Aspergillus niger; 100 μg/disk, acetone): 2.5 mm

O=S(=O)(Sc1ccccc1)c1ccccc1 [(C6H5)SO2S(C6H5)]
Diameter (mm) of clear Zone A. flavus (Aspergillus flavus; 25 μg/disk, acetone): 3.8 mm | Diameter (mm) of clear Zone A. niger (Aspergillus niger; 25 μg/disk, acetone): 3.9 mm

Cc1ccc(S(=O)(=O)CS)cc1 [p-CH3(C6H4)SO2CH2SH, α-p-toluenesulfonyl methyl mercaptan]
Diameter (mm) of clear Zone A. flavus (Aspergillus flavus; 100 μg/disk, acetone): 0 mm | Diameter (mm) of clear Zone A. niger (Aspergillus niger; 100 μg/disk, acetone): 0 mm

Cc1ccc(S(=O)(=O)Sc2ccccc2)cc1 [p-CH3(C6H4)SO2S(C6H5)]
Diameter (mm) of clear Zone A. flavus (Aspergillus flavus; 25 μg/disk, acetone): 3.3 mm | Diameter (mm) of clear Zone A. niger (Aspergillus niger; 25 μg/disk, acetone): 4.3 mm

1-p-toluenesulfonyl-4-propionoxy-2,3-dithiabutane [C2H5OC(O)CH2SSCH2SO2(C6H4)—p-CH3]
Diameter (mm) of clear Zone A. flavus (Aspergillus flavus; [6]): 5.2 mm | Diameter (mm) of clear Zone A. niger (Aspergillus niger; [6]): 8.5 mm

CCS(=O)(=O)SC [CH3CH2SO2SCH3, Methyl Ethanethiosulfonate]
Diameter (mm) of clear Zone A. flavus (Aspergillus flavus; 50 μg/disk, acetone): 1.3 mm | Diameter (mm) of clear Zone A. niger (Aspergillus niger; 50 μg/disk, acetone): 2.0 mm

CSSCOC(=O)c1ccccc1 [CH3SSCH2OC(O)Ph, 2,3-dithiabutyl benzoate]
zone of inhibition at 25 µg/disc (Aspergillus flavus; [4]): 8.4 mm | zone of inhibition at 25 µg/disc (Aspergillus niger; [5]): 6.1 mm

CSSCS(C)(=O)=O [CH3SO2CH2SSCH3, α-methylsulfonyl dimethyl disulphide]
Diameter (mm) of clear Zone A. flavus (Aspergillus flavus; 25 μg/disk, acetone): 3.8 mm | Diameter (mm) of clear Zone A. niger (Aspergillus niger; 25 μg/disk, acetone): 2.7 mm

Cc1ccc(S(=O)(=O)Sc2ccc([N+](=O)[O-])cc2)cc1 [p-CH3(C6H4)SO2S(C6H4)NO2—p, p-Nitrophenyl p-Toluenethiosulfonate]
Diameter (mm) of clear Zone A. flavus (Aspergillus flavus; 25 μg/disk, acetone): 2.0 mm | Diameter (mm) of clear Zone A. niger (Aspergillus niger; 25 μg/disk, acetone): 3.0 mm

CS(=O)(=O)Oc1ccc(S(C)(=O)=O)cc1 [p-CH3SO2(C6H4)OSO2CH3, p-methylsulfonylphenyl methanesulfonate]
zone of inhibition at 100 µg/disc (Aspergillus flavus; [2]): 0 mm | zone of inhibition at 100 µg/disc (Aspergillus niger; [3]): 0 mm

CCC(=O)OCSSCC(=O)OC [CH3OC(O)CH2SSCH2OC(O)C2H5, methyl 3,4-dithia-5-propionoxypentanoate]
zone of inhibition at 0.25 µg/disc (Aspergillus flavus; Aspergillus flavus, 0.25 μg/disk, Appl'n Solvent Acetone): 2.3 mm | zone of inhibition at 0.25 µg/disc (Aspergillus flavus; Aspergillus flavus, 0.25 μg/disk, Appl'n Solvent DMSO): 7.9 mm | zone of inhibition at 0.25 µg/disc (Aspergillus niger; Aspergillus niger, 0.25 μg/disk, Appl'n Solvent Acetone): 3 mm | zone of inhibition at 0.25 µg/disc (Aspergillus niger; Aspergillus niger, 0.25 μg/disk, Appl'n Solvent DMSO): 11.7 mm

CSSCS(=O)(=O)c1ccccc1 [C6H5SO2CH2SSCH3, α-phenylsulfonyl dimethyl disulphide]
Diameter (mm) of clear Zone A. flavus (Aspergillus flavus; 25 μg/disk, acetone): 4.2 mm | Diameter (mm) of clear Zone A. niger (Aspergillus niger; 25 μg/disk, acetone): 5.5 mm

CSS(=O)(=O)c1ccc(C)cc1 [p-CH3(C6H4)SO2SCH3]
Diameter (mm) of clear Zone A. flavus (Aspergillus flavus; 25 μg/disk, acetone): 3.6 mm | Diameter (mm) of clear Zone A. niger (Aspergillus niger; 25 μg/disk, acetone): 1.4 mm

COC(=O)CSS(=O)(=O)c1ccc(C)cc1 [p-CH3(C6H4)SO2SCH2CO2CH3, Carbomethoxymethyl p-Toluenethiosulfonate]
Diameter (mm) of clear Zone A. flavus (Aspergillus flavus; 50 μg/disk, acetone): 1.7 mm | Diameter (mm) of clear Zone A. niger (Aspergillus niger; 50 μg/disk, acetone): 2.9 mm

CS(=O)(=O)Oc1ccc([N+](=O)[O-])cc1 [p-O2N(C6H4)OSO2CH3, p-nitrophenyl methanesulfonate]
zone of inhibition at 100 µg/disc (Aspergillus flavus; [2]): 0 mm | zone of inhibition at 100 µg/disc (Aspergillus niger; [3]): 0 mm

CSCS(C)(=O)=O [CH3SO2CH2SCH3, 2,4-dithiapentane 2,2-dioxide]
zone of inhibition at 100 µg/disc (Aspergillus flavus; [2]): 0 mm | zone of inhibition at 100 µg/disc (Aspergillus niger; [3]): 0 mm

CCSSCS(C)(=O)=O [CH3SO2CH2SSCH2CH3, 2,4,5-trithiaheptane 2,2,-dioxide]
Diameter (mm) of clear Zone A. flavus (Aspergillus flavus; 25 μg/disk, acetone): 3.3 mm | Diameter (mm) of clear Zone A. niger (Aspergillus niger; 25 μg/disk, acetone): 4.8 mm
